In patent US10669272B2, “Substituted naphthyridinone compounds useful as T cell activators” (BRISTOL-MYERS SQUIBB COMPANY, priority 2018, dated 2020):
Like-named read-outs stand apart in the source and are kept apart here.

Columns and labels:
human DGKζ = molecular target: T1, human DGKζ (Homo sapiens, UniProt Q13574); test: DGKζ LIPGLO assay (extruded liposome substrate), in vitro DGK inhibition; format: biochemical; conditions: liposome (LIPGLO) assay; read-out: DGKz LIPGLO IC50
T1 construct: TVMV protease cleavage site (C); Hexa-His (C); made in house; host or cells: Sf9 insect cells (baculovirus, Bac-to-Bac)

Human venous whole blood = test: Human whole blood IFN-γ assay; format: cell-based; conditions: human whole blood, normalized to 3 μM reference compound with anti-CD3 plus anti-CD28 as 100% activation, read-out: INFg Whole Blood Normalized Agonist EC50;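 also: blood from healthy donors exposed to compound for 1 h before stimulation with anti-CD3 and anti-CD28 at 1 µg/mL each, IFN-γ quantified in supernatant by AlphaLISA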
human DGKα = molecular target: T2, human DGKα (Homo sapiens, UniProt P23743); test: DGKα LIPGLO assay (extruded liposome substrate), in vitro DGK inhibition; format: biochemical; conditions: liposome (LIPGLO) assay; read-out: DGKa LIPGLO IC50
T2 construct: TVMV protease cleavage site (C); Hexa-His (C); made in house; host or cells: Sf9 insect cells (baculovirus, Bac-to-Bac)
T2 sequence (P23743 with tags, fused parts or gaps): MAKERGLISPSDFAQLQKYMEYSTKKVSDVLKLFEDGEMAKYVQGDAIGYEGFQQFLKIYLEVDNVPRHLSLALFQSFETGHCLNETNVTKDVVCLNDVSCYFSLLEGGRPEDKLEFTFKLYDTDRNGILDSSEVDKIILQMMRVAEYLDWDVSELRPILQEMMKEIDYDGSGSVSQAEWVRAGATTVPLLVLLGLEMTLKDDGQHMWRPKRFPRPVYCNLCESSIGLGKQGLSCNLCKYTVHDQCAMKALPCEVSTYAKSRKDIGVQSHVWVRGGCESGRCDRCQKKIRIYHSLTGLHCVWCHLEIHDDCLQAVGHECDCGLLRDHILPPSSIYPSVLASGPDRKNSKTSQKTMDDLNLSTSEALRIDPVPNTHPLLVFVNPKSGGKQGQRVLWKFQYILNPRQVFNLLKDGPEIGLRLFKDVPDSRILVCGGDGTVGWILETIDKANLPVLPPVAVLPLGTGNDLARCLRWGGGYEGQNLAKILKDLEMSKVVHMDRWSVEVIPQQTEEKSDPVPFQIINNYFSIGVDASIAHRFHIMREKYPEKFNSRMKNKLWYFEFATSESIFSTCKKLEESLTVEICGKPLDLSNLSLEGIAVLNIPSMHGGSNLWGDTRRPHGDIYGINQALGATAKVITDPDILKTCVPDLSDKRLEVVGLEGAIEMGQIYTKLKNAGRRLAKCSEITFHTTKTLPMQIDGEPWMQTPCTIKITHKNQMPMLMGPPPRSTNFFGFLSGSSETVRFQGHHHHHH

T1 sequence (Q13574 with tags, fused parts or gaps isoform Q13574-4): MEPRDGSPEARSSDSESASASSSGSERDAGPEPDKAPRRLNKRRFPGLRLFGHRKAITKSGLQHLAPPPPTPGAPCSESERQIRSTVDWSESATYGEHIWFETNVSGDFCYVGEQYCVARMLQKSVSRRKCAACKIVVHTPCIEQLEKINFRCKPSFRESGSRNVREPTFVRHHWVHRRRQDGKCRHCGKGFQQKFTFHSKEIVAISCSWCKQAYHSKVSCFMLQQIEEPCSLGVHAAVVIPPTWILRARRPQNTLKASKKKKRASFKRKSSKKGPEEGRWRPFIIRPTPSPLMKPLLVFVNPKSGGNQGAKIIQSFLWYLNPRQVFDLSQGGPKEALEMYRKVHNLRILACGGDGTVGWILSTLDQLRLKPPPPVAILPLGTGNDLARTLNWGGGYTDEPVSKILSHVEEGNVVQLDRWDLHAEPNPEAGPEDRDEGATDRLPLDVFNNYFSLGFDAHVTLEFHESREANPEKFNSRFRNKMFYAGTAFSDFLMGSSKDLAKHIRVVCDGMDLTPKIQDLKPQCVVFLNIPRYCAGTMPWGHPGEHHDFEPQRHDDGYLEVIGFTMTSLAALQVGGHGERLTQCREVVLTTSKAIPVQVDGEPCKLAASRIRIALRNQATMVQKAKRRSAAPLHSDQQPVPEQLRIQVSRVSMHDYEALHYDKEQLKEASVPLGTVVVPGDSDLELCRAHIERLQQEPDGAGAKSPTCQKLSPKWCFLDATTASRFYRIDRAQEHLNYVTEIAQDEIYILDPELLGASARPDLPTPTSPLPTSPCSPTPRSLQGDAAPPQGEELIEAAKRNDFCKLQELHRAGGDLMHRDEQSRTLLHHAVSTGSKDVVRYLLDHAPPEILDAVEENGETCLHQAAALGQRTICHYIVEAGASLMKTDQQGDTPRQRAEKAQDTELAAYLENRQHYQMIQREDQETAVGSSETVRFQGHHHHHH

IC50 (human DGKζ) [nM]	IC50 (human DGKα) [nM]	Structure (SMILES)	EC50 (Human venous whole blood; Homo sapiens, 24 h) [nM]	EC50 (Human venous whole blood) [nM]
680	75	CC(c1ccc(OC(F)(F)F)cc1)N1C[C@H](CO)N(c2cc(=O)n(C)c3ccc(C#N)nc23)C[C@H]1C (single isomer, unassigned) [Example 1419]	1100	–
1700	820	CC(c1ccc(OC(F)(F)F)cc1)N1C[C@H](CO)N(c2cc(=O)n(C)c3ccc(C#N)nc23)C[C@H]1C (single isomer, unassigned) [Example 1420]	–	1700
9500	2100	Cn1c(=O)c(C#N)c(N2CCN(C(c3ccc(F)cc3)c3ccc(F)cc3)C(CF)C2)c2nc(Br)ccc21 (stereo not drawn) [Example 9, 4-(4-(bis(4-fluorophenyl)methyl)-3-(fluoromethyl)piperazin-1-yl)-6-bromo-1-methyl-2-oxo-1,2-dihydro-1,5-naphthyridine-3-carbonitrile]	1600	–
390	610	CC[C@@H]1CN(c2c(F)c(=O)n(C)c3ccc(C#N)nc23)CCN1C(c1ccc(Cl)cc1)c1ccc(Cl)cc1 [Example 178, (R)-8-(4-(bis(4-chlorophenyl)methyl)-3-ethylpiperazin-1-yl)-7-fluoro-5-methyl-6-oxo-5,6-dihydro-1,5-naphthyridine-2-carbonitrile]	580	–
160	330	C[C@@H]1CN(c2cc(=O)n(C)c3ccc(C#N)nc23)[C@@H](C)CN1C(c1ccc(F)cc1)c1cccc(F)c1 (stereo partly drawn) [Example 293, 8-[(2S,5R)-4-[(3-fluorophenyl)(4-fluorophenyl)methyl]-2,5-dimethylpiperazin-1-yl]-5-methyl-6-oxo-5,6-dihydro-1,5-naphthyridine-2-carbonitrile]	–	460
14000	4900	C[C@@H]1CN(c2c(C#N)c(=O)n(C)c3ccc(C#N)nc23)CCN1C(c1ccc(F)cc1)c1cncnc1 (stereo partly drawn) [Example 318, 8-((3R)-4-((4-fluorophenyl)(pyrimidin-5-yl)methyl)-3-methylpiperazin-1-yl)-5-methyl-6-oxo-5,6-dihydro-1,5-naphthyridine-2,7-dicarbonitrile]	7400	–
240	4300	C[C@@H]1CN(c2c(C#N)c(=O)n(C)c3ccc(C#N)nc23)CCN1C(c1ccc(F)cc1)c1ccnc(C(C)(C)C)n1 (stereo partly drawn) [Example 321, 8-((3R)-4-((2-(tert-butyl)pyrimidin-4-yl)(4-fluorophenyl)methyl)-3-methylpiperazin-1-yl)-5-methyl-6-oxo-5,6-dihydro-1,5-naphthyridine-2,7-dicarbonitrile]	950	–
2200	2700	Cc1ccc(C(c2ccc(C#N)cc2)N2C[C@H](C)N(c3c(F)c(=O)n(C)c4ccc(C#N)nc34)C[C@H]2C)cc1 (stereo partly drawn) [Example 322, 8-((2S,5R)-4-((4-cyanophenyl)(p-tolyl)methyl)-2,5-dimethylpiperazin-1-yl)-7-fluoro-5-methyl-6-oxo-5,6-dihydro-1,5-naphthyridine-2-carbonitrile]	2200	–

Second part, the compound before the results:

Structure (SMILES)	IC50 (human DGKζ) [nM]	IC50 (human DGKα) [nM]	EC50 (Human venous whole blood; Homo sapiens, 24 h) [nM]	EC50 (Human venous whole blood) [nM]
COCCOC[C@@H]1CN(c2cc(=O)n(C)c3ccc(C#N)nc23)[C@@H](C)CN1C(C)c1ccc(OC(F)(F)F)cc1 (single isomer, unassigned) [Example 1406]	950	2700	12000	–
CC[C@H]1CN(C(C)c2ccc(OC(F)(F)F)cc2)[C@H](COC)CN1c1cc(=O)n(C)c2ccc(C#N)nc12 (single isomer, unassigned) [Example 1409]	810	9200	2300	–
CC(c1ccc(OC(F)(F)F)cc1)N1C[C@H](C)N(c2cc(=O)n(C)c3ccc(C#N)nc23)C[C@H]1CC#N (single isomer, unassigned) [Example 1411]	1200	200	2200	–
CC(c1ccc(OC(F)(F)F)cc1)N1C[C@H](C)N(c2cc(=O)n(C)c3ccc(C#N)nc23)C[C@H]1CC#N (single isomer, unassigned) [Example 1412]	1700	290	1600	–
CC(c1ccc(OC(F)(F)F)cc1)N1C[C@H](C)N(c2cc(=O)n(C)c3ccc(C#N)nc23)C[C@H]1CN(C)C (single isomer, unassigned) [Example 1414]	4900	40000	10000	–
CC(c1ccc(OC(F)(F)F)cc1)N1C[C@H](C)N(c2cc(=O)n(C)c3ccc(C#N)nc23)C[C@H]1CN1CCOCC1 (single isomer, unassigned) [Example 1415]	1800	19000	–	6900
CC(c1ccc(OC(F)(F)F)cc1)N1C[C@H](C)N(c2cc(=O)n(C)c3ccc(C#N)nc23)C[C@H]1CN1CCOCC1 (single isomer, unassigned) [Example 1416]	52000	48000	–	20000
CCC(c1ccc(OCC2CC2)cc1)N1C[C@H](C)N(c2cc(=O)n(C)c3ccc(C#N)nc23)C[C@H]1C (single isomer, unassigned) [Example 1440]	1100	1600	2100	–
CC(c1ccc(OC(C)(C)C)cc1)N1C[C@H](C)N(c2cc(=O)n(C)c3ccc(C#N)nc23)C[C@H]1C (single isomer, unassigned) [Example 1441]	4800	20000	–	5400
CC(c1ccc(OC(C)(C)C)cc1)N1C[C@H](C)N(c2cc(=O)n(C)c3ccc(C#N)nc23)C[C@H]1C (single isomer, unassigned) [Example 1442]	1000	65	–	530
CCC(c1ccc(OC(C)(C)C)cc1)N1C[C@H](C)N(c2cc(=O)n(C)c3ccc(C#N)nc23)C[C@H]1C (single isomer, unassigned) [Example 1443]	240	56	810	–
CCC(c1ccc(OCCC2CC2)cc1)N1C[C@H](C)N(c2cc(=O)n(C)c3ccc(C#N)nc23)C[C@H]1C (single isomer, unassigned) [Example 1445]	3600	5400	–	5300
CCC(c1ccc(OCCC2CC2)cc1)N1C[C@H](C)N(c2cc(=O)n(C)c3ccc(C#N)nc23)C[C@H]1C (single isomer, unassigned) [Example 1446]	230	260	–	230
CCC(c1ccc(OC(C)C)cc1)N1C[C@H](C)N(c2cc(=O)n(C)c3ccc(C#N)nc23)C[C@H]1CC (single isomer, unassigned) [Example 1447]	24	280	–	50
CCC(c1ccc(OC(C)C)cc1)N1C[C@H](C)N(c2cc(=O)n(C)c3ccc(C#N)nc23)C[C@H]1CC (single isomer, unassigned) [Example 1448]	1700	4200	–	1600
CCC(c1ccc(OC(C)C)cc1)N1C[C@H](C)N(c2cc(=O)n(C)c3ccc(C#N)nc23)C[C@H]1C (single isomer, unassigned) [Example 1449]	350	610	–	870
CCC(c1ccc(OC(C)C)cc1)N1C[C@H](C)N(c2cc(=O)n(C)c3ccc(C#N)nc23)C[C@H]1C (single isomer, unassigned) [Example 1450]	3600	22000	–	6800
